Data reported in US10945932B2, “Prebiotic oral care compositions containing carboxylic acids” (COLGATE-PALMOLIVE COMPANY, priority 2013, dated 2021).
Like-named read-outs stand apart in the source and are kept apart here.

What was measured:
Streptococcus mitis [1] = settings: S mitis, BHI
Experimental: Late exponential growth phase liquid cultures were prepared by transferring the respective bacterium from blood agar plates to BHI and overnight incubation at 37° C. in an anaerobic atmosphere for A. viscosus, V. parvula, F. nucleatum, P. gingivalis, P. intermedia, T forsythia, A. naeslundii, and C. sputigena, and in a 5% CO2 environment for S. salivarius, S. sanguinis, S. mitis, A. actinomycetemcomitans, S. mutans, S. sobrinus and S. gordonii. Overnight cultures were transferred to BHI and adjusted to a concentration of 1×10^7 CFU/ml (colony forming units per ml) by measuring the optical density at 600 nm (OD600) (BioRad SmartSpec 3000). For each strain, 200 μl of the bacterial suspension was added to a 96-well plate containing 20 μl of the respective carboxylic acids. Final concentrations of the carboxylic acids were set to 5, 10, 20 and 25 μmol/ml. […] Plates were incubated as previously described.
For each combination of bacterium/carboxylic acid, and for each of their respective controls (i.e. the particular bacterium in the nutritionally rich medium with no carboxylic acid), the optical density was measured at 630 nm (OD630) at 0 h, 24 h and 48 h (Thermo Scientific Multiskan Ascent). Additionally, the OD630 for combinations of bacterium/carboxylic acid grown in a 5% CO2 environment were also measured every hour between 0 h and 9 h.
The experiment was carried out on three different days (thus providing 3 biological replicas) and on each day the experiment was carried out in quadruple (thus providing 4 technical replicas) for each combination of bacterium with carboxylic acid and for each control. For each day and for each combination, the average (mean) of the values obtained (as detailed above) for the four technical replicas was calculated to provide a single value for each combination on each day.

Actinomyces viscosus = test: Biofilm growth assay in BHI, crystal violet; type: cell-based; settings: A viscosus
Experimental: (§1) Late exponential growth phase liquid cultures were prepared by transferring the respective bacterium from blood agar plates to BHI and overnight incubation at 37° C. in an anaerobic atmosphere for A. viscosus, V. parvula, F. nucleatum, P. gingivalis, P. intermedia, T. forsythia, A. naeslundii, and C. sputigena, and in a 5% CO2 environment for S. salivarius, S. sanguinis, S. mitis, A. actinomycetemcomitans, S. mutans, and S. gordonii. […] Additionally, for each bacterium tested, a background control, to correct for background staining, was added. This background control contained the bacterium tested and 0.03 weight % chlorhexidine, as an antiseptic. Plates were incubated as previously described. After 48 hrs the supernatant was removed from the wells of the plates. The wells were washed twice with 1×100 μL/PBS (phosphate buffered saline), fixed for 20 minutes with 96% vol. ethanol (96% vol. solution in water) and the biofilm retained at the bottom of the wells was stained with 1 weight % crystal violet (1 weight % solution in water). […] Quantification of the stained biofilm was performed by measuring the absorbance at 630 nm using a Multiskan Ascent microplate reader (Thermo Scientific).

Tannerella forsythia = test: Biofilm growth assay in BHI, crystal violet; type: cell-based; settings: T forsythia
Experimental: as §1

Prevotella intermedia = test: Biofilm growth assay in BHI, crystal violet; type: cell-based; settings: P intermedia
Experimental: as §1

Actinomyces naeslundii = test: Biofilm growth assay in BHI, crystal violet; type: cell-based; settings: A naeslundii
Experimental: as §1

Capnocytophaga sputigena = test: Biofilm growth assay in BHI, crystal violet; type: cell-based; settings: C sputigena
Experimental: as §1

Streptococcus gordonii = test: Biofilm growth assay in BHI, crystal violet; type: cell-based; settings: S gordonii
Experimental: as §1

Streptococcus sanguinis = test: Biofilm growth assay in BHI, crystal violet; type: cell-based; settings: S sanguinis
Experimental: as §1

Streptococcus mitis [2] = test: Biofilm growth assay in BHI, crystal violet; type: cell-based; settings: S mitis
Experimental: as §1

Porphyromonas gingivalis = test: Biofilm growth assay in BHI, crystal violet; type: cell-based; settings: P gingivalis
Experimental: as §1

Question: `N[C@@H](CC(=O)O)C(=O)O` [L-aspartic acid] was tested. Which “extent of growth, maximal OD630 over 48 hr divided by maximal OD of control (control = 1)” value (Streptococcus mitis [1]; 5 μmol/ml) did it give?
Answer: 1.2333

Question: And the “extent of growth, maximal OD630 over 48 hr divided by maximal OD of control (control = 1)” value (Streptococcus mitis [1]; 10 μmol/ml)?
Answer: 1.2959

Question: And the “extent of growth, maximal OD630 over 48 hr divided by maximal OD of control (control = 1)” value (Streptococcus mitis [1]; 20 μmol/ml)?
Answer: 1.2536

Question: What about the “extent of growth, maximal OD630 over 48 hr divided by maximal OD of control (control = 1)” value (Streptococcus mitis [1]; 25 μmol/ml) of the same molecule?
Answer: 1.1257

Question: And the “biofilm growth, OD at 630 nm (crystal violet) at 48 hrs divided by OD of control (control = 1)” value (Actinomyces viscosus; 5 μmol/ml)?
Answer: 0.5576

Question: What about the “biofilm growth, OD at 630 nm (crystal violet) at 48 hrs divided by OD of control (control = 1)” value (Actinomyces viscosus; 10 μmol/ml) of the same molecule?
Answer: 0.5650

Question: What about the “biofilm growth, OD at 630 nm (crystal violet) at 48 hrs divided by OD of control (control = 1)” value (Actinomyces viscosus; 20 μmol/ml) of the same molecule?
Answer: 0.5834

Question: And the “biofilm growth, OD at 630 nm (crystal violet) at 48 hrs divided by OD of control (control = 1)” value (Actinomyces viscosus; 25 μmol/ml)?
Answer: 0.5289

Question: What about the “biofilm growth, OD at 630 nm (crystal violet) at 48 hrs divided by OD of control (control = 1)” value (Tannerella forsythia; 5 μmol/ml) of the same molecule?
Answer: 1.0369

Question: And the “biofilm growth, OD at 630 nm (crystal violet) at 48 hrs divided by OD of control (control = 1)” value (Tannerella forsythia; 10 μmol/ml)?
Answer: 0.9131

Question: And the “biofilm growth, OD at 630 nm (crystal violet) at 48 hrs divided by OD of control (control = 1)” value (Tannerella forsythia; 20 μmol/ml)?
Answer: 1.0055

Question: And the “biofilm growth, OD at 630 nm (crystal violet) at 48 hrs divided by OD of control (control = 1)” value (Tannerella forsythia; 25 μmol/ml)?
Answer: 0.9659

Question: And the “biofilm growth, OD at 630 nm (crystal violet) at 48 hrs divided by OD of control (control = 1)” value (Prevotella intermedia; 5 μmol/ml)?
Answer: 1.4322

Question: What about the “biofilm growth, OD at 630 nm (crystal violet) at 48 hrs divided by OD of control (control = 1)” value (Prevotella intermedia; 10 μmol/ml) of the same molecule?
Answer: 1.6018

Question: What about the “biofilm growth, OD at 630 nm (crystal violet) at 48 hrs divided by OD of control (control = 1)” value (Prevotella intermedia; 20 μmol/ml) of the same molecule?
Answer: 1.6295

Question: What about the “biofilm growth, OD at 630 nm (crystal violet) at 48 hrs divided by OD of control (control = 1)” value (Prevotella intermedia; 25 μmol/ml) of the same molecule?
Answer: 1.5442

Question: What about the “biofilm growth, OD at 630 nm (crystal violet) at 48 hrs divided by OD of control (control = 1)” value (Actinomyces naeslundii; 5 μmol/ml) of the same molecule?
Answer: 1.1735

Question: What about the “biofilm growth, OD at 630 nm (crystal violet) at 48 hrs divided by OD of control (control = 1)” value (Actinomyces naeslundii; 10 μmol/ml) of the same molecule?
Answer: 1.2585

Question: And the “biofilm growth, OD at 630 nm (crystal violet) at 48 hrs divided by OD of control (control = 1)” value (Actinomyces naeslundii; 20 μmol/ml)?
Answer: 1.2309

Question: And the “biofilm growth, OD at 630 nm (crystal violet) at 48 hrs divided by OD of control (control = 1)” value (Actinomyces naeslundii; 25 μmol/ml)?
Answer: 1.1175

Question: And the “biofilm growth, OD at 630 nm (crystal violet) at 48 hrs divided by OD of control (control = 1)” value (Capnocytophaga sputigena; 5 μmol/ml)?
Answer: 0.9508

Question: And the “biofilm growth, OD at 630 nm (crystal violet) at 48 hrs divided by OD of control (control = 1)” value (Capnocytophaga sputigena; 10 μmol/ml)?
Answer: 0.9546

Question: What about the “biofilm growth, OD at 630 nm (crystal violet) at 48 hrs divided by OD of control (control = 1)” value (Capnocytophaga sputigena; 20 μmol/ml) of the same molecule?
Answer: 0.9747

Question: And the “biofilm growth, OD at 630 nm (crystal violet) at 48 hrs divided by OD of control (control = 1)” value (Capnocytophaga sputigena; 25 μmol/ml)?
Answer: 0.9785

Question: And the “biofilm growth, OD at 630 nm (crystal violet) at 48 hrs divided by OD of control (control = 1)” value (Streptococcus gordonii; 5 μmol/ml)?
Answer: 1.3455

Question: And the “biofilm growth, OD at 630 nm (crystal violet) at 48 hrs divided by OD of control (control = 1)” value (Streptococcus gordonii; 10 μmol/ml)?
Answer: 1.6702

Question: What about the “biofilm growth, OD at 630 nm (crystal violet) at 48 hrs divided by OD of control (control = 1)” value (Streptococcus gordonii; 20 μmol/ml) of the same molecule?
Answer: 2.1065

Question: What about the “biofilm growth, OD at 630 nm (crystal violet) at 48 hrs divided by OD of control (control = 1)” value (Streptococcus gordonii; 25 μmol/ml) of the same molecule?
Answer: 2.2320

Question: What about the “biofilm growth, OD at 630 nm (crystal violet) at 48 hrs divided by OD of control (control = 1)” value (Streptococcus sanguinis; 5 μmol/ml) of the same molecule?
Answer: 1.5035

Question: What about the “biofilm growth, OD at 630 nm (crystal violet) at 48 hrs divided by OD of control (control = 1)” value (Streptococcus sanguinis; 10 μmol/ml) of the same molecule?
Answer: 1.7477

Question: And the “biofilm growth, OD at 630 nm (crystal violet) at 48 hrs divided by OD of control (control = 1)” value (Streptococcus sanguinis; 20 μmol/ml)?
Answer: 2.0414

Question: And the “biofilm growth, OD at 630 nm (crystal violet) at 48 hrs divided by OD of control (control = 1)” value (Streptococcus sanguinis; 25 μmol/ml)?
Answer: 2.0560

Question: What about the “biofilm growth, OD at 630 nm (crystal violet) at 48 hrs divided by OD of control (control = 1)” value (Streptococcus mitis [2]; 5 μmol/ml) of the same molecule?
Answer: 1.5188

Question: And the “biofilm growth, OD at 630 nm (crystal violet) at 48 hrs divided by OD of control (control = 1)” value (Streptococcus mitis [2]; 10 μmol/ml)?
Answer: 1.6156

Question: What about the “biofilm growth, OD at 630 nm (crystal violet) at 48 hrs divided by OD of control (control = 1)” value (Streptococcus mitis [2]; 20 μmol/ml) of the same molecule?
Answer: 1.5402

Question: What about the “biofilm growth, OD at 630 nm (crystal violet) at 48 hrs divided by OD of control (control = 1)” value (Streptococcus mitis [2]; 25 μmol/ml) of the same molecule?
Answer: 1.7351

Question: What about the “biofilm growth, OD at 630 nm (crystal violet) at 48 hrs divided by OD of control (control = 1)” value (Porphyromonas gingivalis; 5 μmol/ml) of the same molecule?
Answer: 0.9713

Question: And the “biofilm growth, OD at 630 nm (crystal violet) at 48 hrs divided by OD of control (control = 1)” value (Porphyromonas gingivalis; 10 μmol/ml)?
Answer: 0.9936

Question: And the “biofilm growth, OD at 630 nm (crystal violet) at 48 hrs divided by OD of control (control = 1)” value (Porphyromonas gingivalis; 20 μmol/ml)?
Answer: 1.0779

Question: And the “biofilm growth, OD at 630 nm (crystal violet) at 48 hrs divided by OD of control (control = 1)” value (Porphyromonas gingivalis; 25 μmol/ml)?
Answer: 0.9307
